In paper PMC10177262, “A Novel CD206 Targeting Peptide Inhibits Bleomycin-Induced Pulmonary Fibrosis in Mice” (Cells, 2023):
Entries after “also recorded” stand apart in the source; their conditions may differ. No end group written: not given here.

Legend:
[1] = system: MRC5 human fetal lung fibroblast cell line; test: Cytotoxicity in lung fibroblasts MRC5; assay type: cell-based
Procedure: (§1) The RP-832c (RWKFGGFKWR) peptide was synthesized by PolyPeptide Laboratories, San Diego, CA, USA. BMDM cells were isolated and polarized as described previously. The cell viability of RP-832c-treated macrophages was determined using the live/dead viability assay as previously described. Human fetal lung fibroblast cell lines MRC5, IMR90, and IMR9 were purchased from the American Type Culture Collection (ATCC, Manassas, VA, USA) and were cultured according to ATCC protocols.
(§2) BMDM cells were isolated as described previously. Briefly, murine monocyte precursor cells were obtained by flushing out the bone marrow from the femur bones of 6–8-week-old healthy C57BL/6 mice. These precursor cells were then differentiated into M1 macrophages using 20 ng/mL of M-CSF and 20 ng/mL of IFN-γ and into M2 macrophages using 20 ng/mL of M-CSF and 20 ng/mL of IL-4 [29]. […]
(§3) Cell viability dose-response curves were determined using the Live/Dead Viability/Cytotoxicity Kit (Thermo Fisher Scientific, Waltham, MA, USA, Cat# L3224) using the manufacturer’s protocol. […] The images were taken and analyzed as described in the immunofluorescence assay section below. A total of 200 cells were counted manually from three different random 20× regions across three technical replicates, and the percentage of alive cells was calculated using GraphPad Prism version 8.0. […]

[2] = system: M1-polarized bone marrow-derived macrophages (BMDM); test: Live/Dead cell viability assay, M1 macrophages; assay type: cell-based, murine (C57BL/6 mice); details: 48 h, 0–100 μM
Procedure: (§4) BMDM cells were isolated as described previously. Briefly, murine monocyte precursor cells were obtained by flushing out the bone marrow from the femur bones of 6–8-week-old healthy C57BL/6 mice. These precursor cells were then differentiated into M1 macrophages using 20 ng/mL of M-CSF and 20 ng/mL of IFN-γ and into M2 macrophages using 20 ng/mL of M-CSF and 20 ng/mL of IL-4 [29]. Human fetal lung fibroblast cell lines MRC5, IMR90, and IMR9 were purchased from the American Type Culture Collection (ATCC, Manassas, VA, USA) and were cultured according to ATCC protocols.
(§5) Cell viability dose-response curves were determined using the Live/Dead Viability/Cytotoxicity Kit (Thermo Fisher Scientific, Waltham, MA, USA, Cat# L3224) using the manufacturer’s protocol. Macrophages were seeded onto glass-bottom 96-well plates and polarized into M1 or M2 populations. Cells were treated with different concentrations of RP-832c for 48 h. After drug treatment, a 100 μL mixture of 2 μM calcein-AM and 4 μM ethidium homodimer was added and incubated for 1 h. The images were taken and analyzed as described in the immunofluorescence assay section below. A total of 200 cells were counted manually from three different random 20× regions across three technical replicates, and the percentage of alive cells was calculated using GraphPad Prism version 8.0. […]

[3] = system: M2-polarized bone marrow-derived macrophages (BMDM); assay type: cell-based, murine (C57BL/6 mice); details: 48 h
Procedure: as §4, §5

[4] = Toxicity study: body and organ weights, blood count, blood chemistry
[5] = matrix and method not stated; no reference given; cited from earlier work
Excerpt: It is evident from various studies that macrophages are indispensable in tissue repair and subsequent fibrotic changes. […] M1 macrophages initiate host defense responses against pathogens by generating reactive nitric oxide (NO) via inducible nitric oxide synthase (iNOS), and by releasing proinflammatory cytokines and chemokines such as IL-1β, IL-12, IL-23, CCL2, and TNF-α. Meanwhile, M2 macrophages contribute to the pathogenesis of fibrosis ...

[6] = system: IMR9 human fetal lung fibroblast cell line; test: Cytotoxicity in lung fibroblasts IMR9 / IMR91; assay type: cell-based; details: 1μM - 100μM; three independent experiments in triplicate
Procedure: as §1, §2, §3

CD206 in lung tissue = test: IHC staining of CD206 in lungs of BLM-treated mice; assay type: in vivo, mouse; details: n=3 mice; vs naïve
Procedure: At the end of the study, the mice were sacrificed using CO2 followed by cervical dislocation (according to IACUC guidelines), and the lungs were collected and fixed in 10% formalin. After 48 h of fixation, the lungs were processed into tissue sections. The tissue sections were stained with both Hematoxylin/Eosin (H&E) (Sigma Aldrich, Burlington, MA, USA) and Masson Trichrome (Abcam, Waltham, MA, USA). Immunostaining was performed with the anti-CD206 (AF2535, 5 ug/mL, R&D Biosciences), TGF-β1 (MAB1835, 10 ug/mL, R&D Biosciences), and α-SMA (MAB1420, 10 ug/mL, R&D Biosciences, Minneapolis, MN, USA) antibodies as previously described. All slides were scanned using a Leica Aperio SC2 scanner and blindly evaluated by two independent pathologists. A total of 10 representative fields of 20× IHC images per tissue section were individually analyzed for the total number of cells/area using a confocal microscope (Olympus, New York, NY, USA). All quantitative data were normalized to appropriate control images.
We first sought to perform in silico validation of CD206 expression at various time points in both bleomycin-treated rat (GSE48455) and mouse models (GSE40151). […] Thus, the BLM model appears to be an appropriate model to determine the role of CD206 in lung fibrosis. […]
by different concentrations (0μM - 100μM) of RP-832c. […]

[7] = target: T1, CD206 (macrophage mannose receptor) (UniProt P22897); test: SPR
T1 chain: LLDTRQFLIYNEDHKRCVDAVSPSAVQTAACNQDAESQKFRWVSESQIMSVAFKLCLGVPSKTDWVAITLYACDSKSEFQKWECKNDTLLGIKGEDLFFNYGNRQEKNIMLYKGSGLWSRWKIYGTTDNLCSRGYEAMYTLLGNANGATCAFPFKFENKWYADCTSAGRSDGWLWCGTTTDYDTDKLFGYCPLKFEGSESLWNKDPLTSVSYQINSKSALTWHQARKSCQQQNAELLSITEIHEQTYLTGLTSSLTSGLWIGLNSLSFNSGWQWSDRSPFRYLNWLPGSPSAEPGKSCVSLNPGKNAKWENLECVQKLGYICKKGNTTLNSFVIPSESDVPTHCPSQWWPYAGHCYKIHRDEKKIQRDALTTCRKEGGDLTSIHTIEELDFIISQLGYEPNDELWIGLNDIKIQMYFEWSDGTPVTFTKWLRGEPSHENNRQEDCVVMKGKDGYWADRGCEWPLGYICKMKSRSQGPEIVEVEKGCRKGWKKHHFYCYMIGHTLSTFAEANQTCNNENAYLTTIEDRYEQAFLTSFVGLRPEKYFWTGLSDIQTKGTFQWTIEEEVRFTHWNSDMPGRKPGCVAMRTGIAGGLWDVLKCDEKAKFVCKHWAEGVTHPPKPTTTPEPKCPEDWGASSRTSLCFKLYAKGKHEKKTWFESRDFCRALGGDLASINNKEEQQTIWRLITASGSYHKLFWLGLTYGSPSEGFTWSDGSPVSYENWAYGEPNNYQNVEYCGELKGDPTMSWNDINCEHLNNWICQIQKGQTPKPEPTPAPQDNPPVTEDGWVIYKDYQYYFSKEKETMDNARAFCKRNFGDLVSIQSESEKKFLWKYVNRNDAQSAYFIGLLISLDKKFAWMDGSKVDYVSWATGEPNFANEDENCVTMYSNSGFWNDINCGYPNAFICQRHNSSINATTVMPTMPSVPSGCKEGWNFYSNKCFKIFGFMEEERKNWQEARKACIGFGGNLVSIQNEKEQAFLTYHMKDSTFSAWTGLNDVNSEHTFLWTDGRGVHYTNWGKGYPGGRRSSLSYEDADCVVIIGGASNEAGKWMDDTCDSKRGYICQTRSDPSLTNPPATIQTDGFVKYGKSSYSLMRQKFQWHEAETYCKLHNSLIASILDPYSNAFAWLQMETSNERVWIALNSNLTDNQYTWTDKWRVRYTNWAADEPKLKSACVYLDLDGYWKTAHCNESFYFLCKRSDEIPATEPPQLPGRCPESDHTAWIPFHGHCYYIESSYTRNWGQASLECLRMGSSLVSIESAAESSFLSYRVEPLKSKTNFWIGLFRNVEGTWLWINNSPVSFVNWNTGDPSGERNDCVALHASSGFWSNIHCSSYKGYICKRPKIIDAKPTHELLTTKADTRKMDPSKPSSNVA

## RWKFGGFKWR [RP-832c]
[1]; 1μM - 100μM, three independent experiments in triplicate
  cytotoxicity against MRC5 fibroblasts: did not show cytotoxicity; also recorded: lacking any cytotoxicity
[1]; multiple fibroblast cell lines cultured in vitro
  proliferation of fibroblast cell lines: did not observe any significant effect on the proliferation of multiple fibroblast cell lines; also recorded: did not observe direct inhibitory effects on the fibroblast cell lines
[2]
  cytotoxicity in M1 macrophages: only minimal cytotoxicity
[3]
  IC50: ~6 µM
[4]; 50 mg/kg vs saline, p 0.1237
  AST, Mean Difference: −48.8
[4]; 50 mg/kg vs saline, p 0.2623
  Phosphorus, Mean Difference: -1.1 mg/dL
[4]; 50 mg/kg vs saline, p 0.3087
  BUN, Mean Difference: 1.6 mg/dL
[4]; 50 mg/kg vs saline, p 0.3982
  Albumin, Mean Difference: 0.2 g/dL
[4]; 50 mg/kg vs saline, p 0.4413
  Globulin, Mean Difference: 0.1 g/dL
[4]; 50 mg/kg vs saline, p 0.5797
  Total Protein, Mean Difference: 0.3 g/dL
[4]; 50 mg/kg vs saline, p not given
  Creatinine, Mean Difference: 0.0 mg/dL
[4]; 50mg/kg, CD1 mice, vs vehicle
  body weight: did not have any significant effect on body weight
[4]; 50 mg/kg, n = 10, saline n = 5: 0.2 ± 0
  Creatinine: 0.2 ± 0 mg/dL
[4]; 50 mg/kg, n = 10, saline n = 5: 2.6 ± 0.5
  Globulin: 2.7 ± 0.2 g/dL
[4]; 50 mg/kg, n = 10, saline n = 5: 2.9 ± 0.3
  Albumin: 3.1 ± 0.3 g/dL
[4]; 50 mg/kg, n = 10, saline n = 5: 5.6 ± 0.8
  Total Protein: 5.9 ± 0.5 g/dL
[4]; 50 mg/kg, n = 10, saline n = 5: 8.8 ± 2.4
  Phosphorus: 7.7 ± 0.5 mg/dL
[4]; 50 mg/kg, n = 10, saline n = 5: 22.4 ± 3.4
  BUN: 24.0 ± 4.3 mg/dL
[4]; 50 mg/kg, n = 10, saline n = 5: 35.8 ± 18.9
  ALT: 27.2 ± 10 U/L
[4]; 50 mg/kg, n = 10, saline n = 5: 140.0 ± 75.5
  AST: 91.2 ± 21.7 U/L
[4]; 50 mg/kg, vs vehicle
  body weight, organ weights, complete blood count and blood chemistry: no apparent toxicities observed; also recorded: No significant differences were observed
  complete blood cell count: does not significantly affect the complete blood cell count
  organ weights: lacks any significant
[5]
  half-life compared to RP-182: increased half-life compared to RP-182
  stability compared to RP-182: enhanced stability
[6]
  cytotoxicity against IMR9 (IMR91) fibroblasts: did not show cytotoxicity; also recorded: lacking any cytotoxicity

## bleomycin
CD206 in lung tissue
  CD206 expression in lungs of BLM-treated mice (IHC): upregulated

## RWKFGGFKWR [RP-832c]
[7]
  Kd: ~3.5 µM
